Source: patent US12466849B2, “Anti-viral and anti-tumoral compounds” (YEDA RESEARCH AND DEVELOPMENT CO. LTD, priority 2020, dated 2025)
Like-named read-outs stand apart in the source and are kept apart here.

Experiments:
in vitro [1] = conditions: human
JC virus (JCV) [2] = tested on: JC virus (JCV)
[3] = tested on: BK virus (BKV), Gardner strain
in vivo = conditions: male, Sprague-Dawley, rat; for AUC(0-inf): AUCInf; for AUC(0-t): AUClast; for clearance: CL; for MRT inf: MRTInf
JC virus (JCV) [4] = assay: microbe, parasite or virus in culture; conditions: JC polyomavirus, COS-7
[5] = MRC-5 cytotoxicity assay (MTS) and visual cytotoxicity; conditions: human
HFF cells = assay: Cell proliferation assay, human foreskin fibroblast (HFF) cells; type: cell-based; conditions: Homo sapiens, 72 h, cell number
[6] = Rat plasma pharmacokinetics after IV infusion and PO dose; conditions: rats; 10 mg/kg IV 2-h infusion and PO
[7] = tested on: BK virus (BKV), Gardner strain; assay: microbe, parasite or virus in culture; conditions: Betapolyomavirus hominis, HFF
in vitro [8] = conditions: human; remark: listed apart in the source
[9] = human; for CLhep / Eh / Peak area ratio, parent: 1 μM
in vitro [10] = conditions: human; remark: listed apart in the source
in vitro [11] = conditions: both, human, plasma
in vitro [12] = conditions: rat
in vitro [13] = conditions: African green monkey
[14] = rat; for CLhep / Eh: 1 μM; for Peak area ratio, parent: 1 µM
in vitro [15] = conditions: male, SD, rat, plasma
HCMV AD169 = assay: HCMV plaque reduction assay, MRC-5 cells, strain AD169; type: cell-based, Human cytomegalovirus
[16] = Secondary JCV assay (qPCR), COS7 cells; conditions: African green monkey
JC virus (JCV) [17] = assay: Secondary JCV assay (qPCR), COS7 cells

## CCCCCCCCCCCCCCCCOCCCOP(=O)(O)OCC1=C[C@H](O)[C@H](n2cnc3c(=O)[nH]c(N)nc32)O1 [AB23040]
In vitro [1]; s9
  microsomal CLint at 1 μM: 7 µL/min/mg
In vitro [1]; s9, T1/2
  half-life at 1 µM: 4.69 h
  half-life at 1 μM: 3.31 h
JC virus (JCV) [2]
  Activity: LO (key: NA (Not Active) SI50 = 0-3.9; LO (Slightly Active) SI50 = 4-9.9; MOD (Moderately Active) SI50 = 10-19.9; HI (Highly Active) SI50 = ≥20)
  activity against JC virus (in words): Low activity
[3]
  Activity: LO (key: NA (Not Active) SI50 = 0-3.9; LO (Slightly Active) SI50 = 4-9.9; MOD (Moderately Active) SI50 = 10-19.9; HI (Highly Active) SI50 = ≥20)
  activity against BK virus (in words): Low activity
In vivo; iv, 10 mg/kg
  concentration at 0.5 h: 2670 nM
  concentration at 1 h: 3260 nM
  concentration at 2 h: 4070 nM
  concentration at 4 h: 133 nM
  concentration at 8 h: 13 nM
  concentration at 24 h: 5 nM
  concentration at 72 h: 4 nM
  AUC(0-inf): 9.13 µM·h
  AUC(0-t): 9.12 µM·h
  clearance: 28.3 mL/min/kg
  Cmax: 3650 nM
  Tmax: 2 h
In vivo; iv, 10 mg/kg, Terminal t1/2
  half-life: 37 h
In vivo; iv, 10 mg/kg, t1/2
  half-life: 0.8 h
In vivo; iv, t1/2 in plasma
  half-life: < 1 h
In vivo; po, 10 mg/kg
  bioavailability: 4%
  concentration at 0.5 h: 38 nM
  concentration at 1 h: 58 nM
  concentration at 2 h: 77 nM
  concentration at 4 h: 30.4 nM
  concentration at 8 h: 24 nM
  AUC(0-inf): 0.503 µM·h
  AUC(0-t): 0.387 µM·h
  MRT inf: 5.2 h
  Tmax: 2 h
JC virus (JCV) [4]
  EC50: 8.85 µM
  EC90: 28 µM
[5]
  CC50 at 6 days: > 100 µM
HFF cells
  IC50: 65.9 µM
[6]
  tolerability / adverse events (AE): well-tolerated
[7]
  EC50: 4.97 µM
  EC90: > 6 µM
In vitro [8]
  CC50: 25.1 µM
[9]
  CLhep: 10.6 mL/min/kg
  Eh: 24%
[9]; 15 min
  Peak area ratio, parent: 1.33E−01
[9]; 60 min
  Peak area ratio, parent: 1.05E−01
[9]; s9
  hydrolytic stability in hepatic S9 (in words): least stable
[9]; s9, 1 μM
  T1/2: 3.32 h
In vitro [10]
  CC50 at 7 d: 112 µM
In vitro [11]
  half-life at 0.75 µM: > 9.32 h
  half-life at 0.75 μM: > 9.3 h
In vitro [12]; s9
  microsomal CLint at 1 μM: 5.8 µL/min/mg
In vitro [12]; s9, T1/2
  half-life at 1 µM: 5.72 h
  half-life at 1 μM: 3.95 h
In vitro [13]
  CC50: 80.7 µM
[14]
  CLhep: 18.7 mL/min/kg
  Eh: 21%
[14]; 15 min
  Peak area ratio, parent: 1.16E−01
[14]; 60 min
  Peak area ratio, parent: 1.11E−01
[14]; s9
  hydrolytic stability in hepatic S9 (in words): least stable
[14]; s9, 1 μM
  T1/2: 3.95 h
In vitro [15]
  half-life at 0.75 µM: > 9.32 h
  half-life at 0.75 μM: > 9.3 h
HCMV AD169; Human betaherpesvirus 5, 144 h, hCMV AD169, MRC5 cells, plaque assay, 6-days duration
  EC50: 22.1 µM
HCMV AD169; MRC5 cells, AD169 strain
  antiviral activity against hCMV (in words): impressive antiviral activity
HCMV AD169; hCMV AD169, MRC5 cells
  Selectivity Index (CC50/EC50): >4.52
[16]
  CC50 at 7 days: 31.3 µM
JC virus (JCV) [17]; JC polyomavirus, COS-7, 168 h
  EC50: 0.37 µM
  EC90: 18.6 µM
JC virus (JCV) [17]; secondary JCV assay, COS7 cells, class by SI50
  Activity: HI (HI (Highly Active) SI50 = ≥20)
JC virus (JCV) [17]; secondary testing, COS7 cells
  antiviral activity against JCV (in words): high

## CCCCCCCCCCCCCCCCOCCCOP(=O)(O)CO[C@H](CO)Cn1ccc(N)nc1=O [BCV, Brincidofovir]
In vitro [1]; s9, T1/2
  half-life at 1 μM: 4.1 h
JC virus (JCV) [2]
  activity against JC virus (in words): high or moderate activity
[3]
  activity against BK virus (in words): high or moderate activity
In vivo; iv, 10 mg/kg
  concentration at 0.5 h: 3400 nM
  concentration at 1 h: 3200 nM
  concentration at 2 h: 3660 nM
  concentration at 4 h: 45 nM
  concentration at 8 h: 9 nM
  concentration at 24 h: 6 nM
  AUC(0-inf): 9.01 µM·h
  AUC(0-t): 8.98 µM·h
  clearance: 33.3 mL/min/kg
  Cmax: 3760 nM
  MRT inf: 1.9 h
In vivo; iv, 10 mg/kg, Vss
  Vd: 3.7 L/kg
In vivo; iv, 10 mg/kg, t1/2
  half-life: 0.8 h
In vivo; iv, t1/2 in plasma
  half-life: < 1 h
In vivo; po, 10 mg/kg
  bioavailability: 11%
  concentration at 0.5 h: 21 nM
  concentration at 1 h: 25 nM
  concentration at 2 h: 42 nM
  concentration at 4 h: 39 nM
  concentration at 8 h: 11 nM
  AUC(0-inf): 1.2 µM·h
  AUC(0-t): 1.17 µM·h
  Cmax: 141 nM
  MRT inf: 6.9 h
  Tmax: 4 h
In vivo; po, 10 mg/kg, t1/2
  half-life: 4.2 h
JC virus (JCV) [4]
  EC50: 0.74 µM
  EC90: 1.85 µM
[6]
  tolerability / adverse events (AE): well-tolerated
[7]
  EC50: 0.06 µM
  EC90: 0.39 µM
In vitro [8]
  CC50: > 10 µM
[9]
  CLhep: 9.5 mL/min/kg
  Eh: 31%
In vitro [11]
  half-life at 0.75 μM: > 9.3 h
In vitro [12]; s9, T1/2
  half-life at 1 μM: 7.68 h
In vitro [13]
  CC50: 9.25 µM
[14]
  CLhep: 11.5 mL/min/kg
  Eh: 16%
In vitro [15]
  half-life at 0.75 μM: > 9.3 h
